Structures can show the parent of a compound that is named as a salt.
Experiments:
MCF-10A = experiment: MTT assay, MCF-10A non-cancerous cells; type: cell-based, human; details: non-cancerous epithelial breast cells, 48 h incubation
Method: (§1) The non-cancerous cell line MCF-10A (human epithelial breast cells) was cultured in a DMEM F12 medium supplemented with 10% FBS (Invitrogen, Carlsbad, CA, USA), 1× HyClone™ Antibiotic/Antimycotic Solution (GE Healthcare, Piscataway, NJ, USA), insulin, hEGF, and hydrocortisone. The BJ-5ta cells (human dermal fibroblasts) were cultured in a DMEM-M199 4:1 medium mixture, supplemented with 10% FBS and hygromycin B (0.01 mg/mL). The cells were maintained under standard conditions with an atmosphere containing 5% CO2 at 37 °C. Cell viability, estimated by trypan blue exclusion, was consistently greater than 95% before each experiment.
(§2) To evaluate the IC50 (half-maximal inhibitory concentration) and confirm the antiproliferative activity of the tested substances, we employed the colorimetric MTT assay (3-(4,5-dimethylthiazol-2-yl)-2,5-diphenyltetrazolium bromide) (Sigma-Aldrich Chemie, Steinheim, Germany). The cell lines were seeded in 96-well plates at a density of 5 × 10^3 to 10 × 10^3 cells per well. After 24 h, the tested substances, dissolved in the cultivation medium, were added to the cells at final concentrations of 5, 10, 20, and 50 µmol/L. The cells were then incubated for 48 h under standard cultivation conditions. Following the incubation period, MTT was added to each well. The MTT was metabolized by the cells into insoluble formazan crystals, which were subsequently dissolved by adding 100 µL of 10% SDS. After another 24 h, the absorbance was measured at a wavelength of 540 nm using the automated Cytation™ 3 Cell Imaging Multi-Mode Reader (Biotek, Winooski, VT, USA). The experiments were performed in at least three independent repetitions. IC50 values were calculated using a nonlinear regression method.

Bj-5ta = experiment: MTT assay, BJ-5ta non-cancerous fibroblasts; type: cell-based, human; details: non-cancerous dermal fibroblasts, 48 h incubation
Method: as §1, §2

A549 = experiment: MTT assay, A549; type: cell-based, human; details: lung adenocarcinoma, 48 h incubation
Method: (§3) The human cancer cell lines HeLa (cervical adenocarcinoma), HCT116 (colorectal adenocarcinoma), A2780 (human ovarian adenocarcinoma), A2780cis (human ovarian adenocarcinoma cisplatin-resistant), Jurkat (acute T-lymphoblastic leukemia), and Hep G2 (hepatocellular carcinoma) were cultured in an RPMI 1640 growth medium (Biosera, Kansas City, MO, USA). The cancer cell lines MDA-MB-231 (triple-negative breast adenocarcinoma), A2058 (human melanoma), U87 (human glioblastoma), PATU 8902 (pancreas adenocarcinoma), and A549 (human lung adenocarcinoma) were cultured in a DMEM medium (Biosera, Kansas City, MO, USA). The media were supplemented with 10% fetal bovine serum (FBS) (Invitrogen, Carlsbad, CA, USA) and 1× HyClone™ Antibiotic/Antimycotic Solution (GE Healthcare, Piscataway, NJ, USA).
as §2

Hep G2 = experiment: MTT assay, Hep G2; type: cell-based, human; details: hepatocellular carcinoma, 48 h incubation
Method: as §3, §2

A2780 = experiment: MTT assay, A2780; type: cell-based, human; details: ovarian adenocarcinoma, 48 h incubation
Method: as §3, §2

HeLa = experiment: MTT assay, HeLa; type: cell-based, human; details: cervical adenocarcinoma, 48 h incubation
Method: as §3, §2

HCT116 = experiment: MTT assay, HCT116; type: cell-based, human; details: colorectal adenocarcinoma, 48 h incubation
Method: as §3, §2

PATU = experiment: MTT assay, PATU 8902; type: cell-based, human; details: pancreas adenocarcinoma, 48 h incubation
Method: as §3, §2

A2058 = experiment: MTT assay, A2058; type: cell-based; details: human melanoma, 48 h incubation
Method: as §3, §2

| IC50 (A549) | IC50 (A2780) | IC50 (HeLa) | IC50 (HCT116) | IC50 (A2780; Homo sapiens, A2780, 48 h) | IC50 (HeLa; Homo sapiens, HeLa, 48 h) | melting point | IC50 (A549; Homo sapiens, A549, 48 h) | IC50 (HCT116; Homo sapiens, HCT-116, 48 h) | SMILES | IC50 (MCF-10A) | IC50 (Bj-5ta) | IC50 (Hep G2) | IC50 (PATU) | IC50 (A2058) | IC50 (Bj-5ta; Homo sapiens, Fibroblast, 48 h) | IC50 (Hep G2; Homo sapiens, HepG2, 48 h) | IC50 (PATU; Homo sapiens, PaTu 8902, 48 h) | IC50 (A2058; Homo sapiens, A2058, 48 h) | IC50 (MCF-10A; Homo sapiens, MCF-10A, 48 h) |
| --- | --- | --- | --- | --- | --- | --- | --- | --- | --- | --- | --- | --- | --- | --- | --- | --- | --- | --- | --- |
| > 50 µM | > 50 µM | 25.1 ± 6.4 µM | 26.7 ± 9.01 µM | – | – | – | – | – | COc1cc(/C=C2\SC(=O)N(Cc3c4ccccc4nc4ccccc34)C2=O)ccc1OCC(=O)Nc1cc(C(F)(F)F)cc(C(F)(F)F)c1 [12g·2HCl, 2-(4-{[(5Z)-3-[(Acridin-9-yl)methyl]-2,4-dioxo-1,3-thiazolidin-5-ylidene]methyl}-2-methoxyphenoxy)-N-[3,5-bis(trifluoromethyl)phenyl]acetamide dihydrochloride] | > 50 µM | > 50 µM | > 50 µM | > 50 µM | > 50 µM | – | – | – | – | – |
| > 50 µM | – | – | 37.6 ± 4.2 µM | > 50 µM | 24.3 ± 3.8 µM | 249 to 250 °C | – | – | O=C(COc1ccc(/C=C2\SC(=O)N(Cc3c4ccccc4nc4ccccc34)C2=O)cc1)Nc1ccccc1 [Compound 7a, 2-(4-{[(5Z)-3-[(Acridin-9-yl)methyl]-2,4-dioxo-1,3-thiazolidin-5-ylidene]methyl}phenoxy)-N-phenylacetamide] | > 50 µM | – | – | – | – | > 50 µM | > 50 µM | > 50 µM | > 50 µM | – |
| – | – | – | – | > 50 µM | 11.3 ± 2.75 µM | 280 to 282 °C | 34.6 ± 5.4 µM | 34.5 ± 2.98 µM | COc1cc(NC(=O)COc2ccc(/C=C3\SC(=O)N(Cc4c5ccccc5nc5ccccc45)C3=O)cc2)cc(OC)c1 [Compound 7b, 2-(4-{[(5Z)-3-[(Acridin-9-yl)methyl]-2,4-dioxo-1,3-thiazolidin-5-ylidene]methyl}phenoxy)-N-(3,5-dimethoxyphenyl)acetamide] | 28.8 ± 2.3 µM | – | – | – | – | > 50 µM | > 50 µM | > 50 µM | > 50 µM | – |
| – | – | 6.8 ± 2.4 µM | > 50 µM | > 50 µM | – | 248 to 249 °C | > 50 µM | – | COc1cc(NC(=O)COc2ccc(/C=C3\SC(=O)N(Cc4c5ccccc5nc5ccccc45)C3=O)cc2)cc(OC)c1OC [Compound 7c, 2-(4-{[(5Z)-3-[(Acridin-9-yl)methyl]-2,4-dioxo-1,3-thiazolidin-5-ylidene]methyl}phenoxy)-N-(3,4,5-trimethoxyphenyl)acetamide] | 14.5 ± 2.5 µM | – | – | – | – | > 50 µM | > 50 µM | > 50 µM | > 50 µM | – |
| – | – | 20.1 ± 2.95 µM | > 50 µM | > 50 µM | – | 293 to 294 °C | > 50 µM | – | O=C(COc1ccc(/C=C2\SC(=O)N(Cc3c4ccccc4nc4ccccc34)C2=O)cc1)Nc1ccc([N+](=O)[O-])cc1 [Compound 7d, 2-(4-{[(5Z)-3-[(Acridin-9-yl)methyl]-2,4-dioxo-1,3-thiazolidin-5-ylidene]methyl}phenoxy)-N-(4-nitrophenyl)acetamide] | – | – | – | – | – | > 50 µM | > 50 µM | > 50 µM | > 50 µM | > 50 µM |
| – | – | > 50 µM | 22.3 ± 4.6 µM | > 50 µM | – | 256 to 257 °C (dec.) | > 50 µM | – | O=C(COc1ccc(/C=C2\SC(=O)N(Cc3c4ccccc4nc4ccccc34)C2=O)cc1)Nc1ccccc1C(F)(F)F [Compound 7e, 2-(4-{[(5Z)-3-[(Acridin-9-yl)methyl]-2,4-dioxo-1,3-thiazolidin-5-ylidene]methyl}phenoxy)-N-[2-(trifluoromethyl)phenyl]acetamide] | – | – | – | > 50 µM | – | > 50 µM | > 50 µM | – | > 50 µM | > 50 µM |
| 16.4 ± 1.85 µM | – | – | – | > 50 µM | 6.2 ± 1.3 µM | 250 to 251 °C (dec.) | – | 8.8 ± 3.7 µM | O=C(COc1ccc(/C=C2\SC(=O)N(Cc3c4ccccc4nc4ccccc34)C2=O)cc1)Nc1cccc(C(F)(F)F)c1 [Compound 7f, 2-(4-{[(5Z)-3-[(Acridin-9-yl)methyl]-2,4-dioxo-1,3-thiazolidin-5-ylidene]methyl}phenoxy)-N-[3-(trifluoromethyl)phenyl]acetamide] | – | – | – | – | – | 32.6 ± 7.4 µM | 28.1 ± 5.5 µM | 11.5 ± 2.06 µM | > 50 µM | 9.8 ± 1.9 µM |
| – | – | – | 18 ± 1.2 µM | > 50 µM | 20.9 ± 2.8 µM | 227 to 228 °C (dec.) | 18.9 ± 3.85 µM | – | O=C(COc1ccc(/C=C2\SC(=O)N(Cc3c4ccccc4nc4ccccc34)C2=O)cc1)Nc1cc(C(F)(F)F)cc(C(F)(F)F)c1 [Compound 7g, 2-(4-{[(5Z)-3-[(Acridin-9-yl)methyl]-2,4-dioxo-1,3-thiazolidin-5-ylidene]methyl}phenoxy)-N-[3,5-bis(trifluoromethyl)phenyl]acetamide] | > 50 µM | – | – | – | – | > 50 µM | > 50 µM | > 50 µM | > 50 µM | – |
| – | – | 21.1 ± 7.2 µM | – | > 50 µM | – | 258 to 259 °C (dec.) | > 50 µM | 26.9 ± 1.85 µM | O=C(COc1ccc(/C=C2\SC(=O)N(Cc3cccc4cc5ccccc5nc34)C2=O)cc1)Nc1ccccc1 [Compound 8a, 2-(4-{[(5Z)-3-[(Acridin-4-yl)methyl]-2,4-dioxo-1,3-thiazolidin-5-ylidene]methyl}phenoxy)-N-phenylacetamide] | – | – | – | – | – | > 50 µM | > 50 µM | > 50 µM | > 50 µM | > 50 µM |
| – | – | 12 ± 2.8 µM | – | > 50 µM | – | 168 to 169 °C (dec.) | > 50 µM | > 50 µM | COc1cc(NC(=O)COc2ccc(/C=C3\SC(=O)N(Cc4cccc5cc6ccccc6nc45)C3=O)cc2)cc(OC)c1 [Compound 8b, 2-(4-{[(5Z)-3-[(Acridin-4-yl)methyl]-2,4-dioxo-1,3-thiazolidin-5-ylidene]methyl}phenoxy)-N-(3,5-dimethoxyphenyl)acetamide] | – | – | – | – | – | > 50 µM | > 50 µM | > 50 µM | > 50 µM | > 50 µM |
| – | – | – | – | > 50 µM | > 50 µM | 193 to 194 °C (dec.) | > 50 µM | > 50 µM | COc1cc(NC(=O)COc2ccc(/C=C3\SC(=O)N(Cc4cccc5cc6ccccc6nc45)C3=O)cc2)cc(OC)c1OC [Compound 8c, 2-(4-{[(5Z)-3-[(Acridin-4-yl)methyl]-2,4-dioxo-1,3-thiazolidin-5-ylidene]methyl}phenoxy)-N-(3,4,5-trimethoxyphenyl)acetamide] | – | – | – | – | – | > 50 µM | > 50 µM | > 50 µM | > 50 µM | > 50 µM |
| > 50 µM | 15 ± 1.35 µM | 18.2 ± 5.1 µM | 6.55 ± 1.65 µM | – | – | – | – | – | COc1cc(/C=C2\SC(=O)N(Cc3c4ccccc4nc4ccccc34)C2=O)ccc1OCC(=O)Nc1ccccc1 [Compound 12a·2HCl, 2-(4-{[(5Z)-3-[(Acridin-9-yl)methyl]-2,4-dioxo-1,3-thiazolidin-5-ylidene]methyl}-2-methoxyphenoxy)-N-phenylacetamide dihydrochloride] | 19.3 ± 1.1 µM | 35.5 ± 4.5 µM | > 50 µM | > 50 µM | > 50 µM | – | – | – | – | – |

Reference: PMC11280325, “Design, Synthesis, and Characterization of Novel Thiazolidine-2,4-Dione-Acridine Hybrids as Antitumor Agents” (Molecules, 2024)
